Like-named read-outs stand apart in the source and are kept apart here.
Experiments:
OX2R [1] = molecular target: T1, OX2R (Homo sapiens, UniProt O43614); settings: individuals with NT1; initial clinical studies; cited from earlier work
T1 construct: host or cells: individuals with NT1
T1 sequence (O43614 1-444): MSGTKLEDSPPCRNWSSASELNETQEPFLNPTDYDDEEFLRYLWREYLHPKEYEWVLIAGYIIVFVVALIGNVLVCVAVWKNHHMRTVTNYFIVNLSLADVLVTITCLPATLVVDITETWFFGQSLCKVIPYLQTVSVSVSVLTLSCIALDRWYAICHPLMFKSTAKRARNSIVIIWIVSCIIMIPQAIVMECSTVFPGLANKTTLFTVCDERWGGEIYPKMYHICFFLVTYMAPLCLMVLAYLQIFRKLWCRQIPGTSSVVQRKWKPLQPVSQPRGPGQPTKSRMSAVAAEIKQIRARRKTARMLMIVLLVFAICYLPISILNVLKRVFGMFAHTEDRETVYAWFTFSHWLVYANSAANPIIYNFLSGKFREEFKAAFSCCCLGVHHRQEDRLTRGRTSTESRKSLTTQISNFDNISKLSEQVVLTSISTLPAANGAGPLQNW

OX2R [2] = molecular target: T2, OX2R (Mus musculus, UniProt P58308); settings: cited from earlier work
T2 construct: host or cells: mice (WT, orexin-deficient, orexin-neuron ablated)
T2 sequence (P58308 1-460): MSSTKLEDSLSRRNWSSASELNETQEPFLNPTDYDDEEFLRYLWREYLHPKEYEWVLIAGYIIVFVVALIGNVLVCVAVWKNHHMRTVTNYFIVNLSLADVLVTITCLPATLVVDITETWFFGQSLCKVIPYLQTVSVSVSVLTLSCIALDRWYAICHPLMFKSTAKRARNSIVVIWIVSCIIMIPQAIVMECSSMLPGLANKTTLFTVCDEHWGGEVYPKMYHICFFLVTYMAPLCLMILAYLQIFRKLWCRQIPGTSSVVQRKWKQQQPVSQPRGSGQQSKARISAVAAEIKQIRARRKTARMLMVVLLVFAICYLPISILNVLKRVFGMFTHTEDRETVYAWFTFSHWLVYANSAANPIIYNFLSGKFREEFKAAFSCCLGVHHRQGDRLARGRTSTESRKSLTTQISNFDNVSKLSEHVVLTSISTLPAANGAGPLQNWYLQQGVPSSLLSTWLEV

[3] = molecular target: T3, human orexin type 2 receptor (hOX2R) (Homo sapiens, UniProt O43614); assay: cell-based;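 also: agonist activity in CHO cells stably expressing hOX2R, intracellular Ca2+ via Calcium 5 dye fluorescence area over 2 min, buffer-only as 0% and 10 nM orexin A as 100%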
T3 sequence (O43614 1-444): T1 sequence (O43614 1-444)
Method: Measurement of orexin type 2 receptor agonist activity. […] After removal of the medium, 50 μl of assay buffer 1 (0.1% bovine serum albumin (Sigma Aldrich), 20 mM HEPES (Molecular Dimensions), 250 mM probenecid (Sigma Aldrich), 1× Calcium 5 dye (Molecular Devices) in Hank's balanced salt solution (Invitrogen)) was added, and the cells were incubated for 60 min under the conditions of 37° C., 5% CO2. A test compound was dissolved in dimethyl sulfoxide (Sigma Aldrich) to 10 mM, and then diluted with assay buffer 2 (20 mM HEPES, Hank's balanced salt solution, 0.1% bovine serum albumin). For the reaction, a test compound solution (10 μl) was added using Fluorescent Imaging Plate Reader TETRA (FLIPR TETRA: manufactured by Molecular Devices), a fluorescence value (excitation wavelength 488 nm, measurement wavelength 570 nm) of each well was measured every one second for 2 min, and the agonist activity was determined using the area of the fluorescence value as an indicator of intracellular Ca^2+ concentration. The agonist activity of the test compound was calculated assuming that the fluorescence value of the well added with only the dilution buffer was 0% and the fluorescence value of the well added with 10 nM human orexin A (Tocris) buffer was 100%.

Row | EC50 [3] | SMILES | other results
1 |  | COC(=O)N1CCC[C@H](NS(C)(=O)=O)[C@@H]1CO[C@H]1CC[C@@H](c2ccccc2)CC1 [TAK-925] | cataplexy (OX2R [1]): trends for decreasing cataplexy; wakefulness (OX2R [1]): substantial levels of increased wakefulness; wakefulness (OX2R [2]; subcutaneous administration, WT mice): modestly increased wakefulness
2 |  | COc1ccc(-c2cccc(C(=O)N(C)C)c2)cc1S(=O)(=O)Nc1cccc(NCCNC(=O)c2ccccc2N(C)C)c1 [YNT-185] | sleep-onset REM periods and cataplexy-like events (OX2R [2]; intraperitoneally or ICV, NT1 mouse model): decrease sleep-onset REM periods and cataplexy-like events; wakefulness (OX2R [2]; intraperitoneally or ICV, wild type (WT) and orexin ligand-deficient mice): modestly increases wakefulness
3 | 1 to 10 nM | C[C@@](O)(CF)C(=O)N1CC2(CC2)[C@H](NS(=O)(=O)C(F)F)[C@@H]1Cc1cccc(-c2cc(F)cc(F)c2)c1F [compound 1, 1,1-difluoro-N-((6S,7S)-5-((S)-3-fluoro-2-hydroxy-2-methylpropanoyl)-6-((2,3′,5′-trifluoro-[1,1′-biphenyl]-3-yl)methyl)-5-azaspiro[2.4]heptan-7-yl)methanesulfonamide] | 
4 | 1 to 10 nM | CC(F)(F)CNC(=O)N1CC2(CC2)[C@H](NS(=O)(=O)CF)[C@@H]1Cc1cc(F)cc(-c2ccccc2)c1F [compound 74, (6S,7S)-6-((2,5-difluoro-[1,1′-biphenyl]-3-yl)methyl)-N-(2,2-difluoropropyl)-7-((fluoromethyl)sulfonamido)-5-azaspiro[2.4]heptane-5-carboxamide] | 
5 | 0.0631 to 1 nM | O=C([C@H]1CCO1)N1CC2(CC2)[C@H](NS(=O)(=O)C2(F)CC2)[C@@H]1Cc1cccc(-c2cc(F)cc(F)c2)c1F [compound 36, 1-fluoro-N-((6S,7S)-5-((R)-oxetane-2-carbonyl)-6-((2,3′,5′-trifluoro-[1,1′-biphenyl]-3-yl)methyl)-5-azaspiro[2.4]heptan-7-yl)cyclopropane-1-sulfonamide] | 
6 | 0.0631 to 1 nM | C[C@](O)(C(=O)N1CC2(CC2)[C@H](NS(=O)(=O)CF)[C@@H]1Cc1cccc(-c2cccc(F)c2)c1F)C(F)F [compound 6, N-((6S,7S)-5-((S)-3,3-difluoro-2-hydroxy-2-methylpropanoyl)-6-((2,3′-difluoro-[1,1′-biphenyl]-3-yl)methyl)-5-azaspiro[2.4]heptan-7-yl)-1-fluoromethanesulfonamide] | 
7 | 0.0631 to 1 nM | CC(C)S(=O)(=O)N[C@@H]1[C@H](Cc2cc(F)cc(-c3cc(F)cc(F)c3)c2F)N(C(=O)[C@H]2CCO2)CC12CC2 [compound 20, N-((6S,7S)-5-((R)-oxetane-2-carbonyl)-6-((2,3′,5,5′-tetrafluoro-[1,1′-biphenyl]-3-yl)methyl)-5-azaspiro[2.4]heptan-7-yl)propane-2-sulfonamide] | 
8 | 1 to 10 nM | COC1CN(C(=O)N2CC3(CC3)[C@H](NS(=O)(=O)C(F)F)[C@@H]2Cc2cccc(-c3cc(F)cc(F)c3)c2F)C1 [compound 52, 1,1-difluoro-N-((6S,7S)-5-(3-methoxyazetidine-1-carbonyl)-6-((2,3′,5′-trifluoro-[1,1′-biphenyl]-3-yl)methyl)-5-azaspiro[2.4]heptan-7-yl)methanesulfonamide] | 

— patent US20250100968A1, “BICYCLIC-HETEROCYCLE DERIVATIVES AND RELATED USES” (CENTESSA PHARMACEUTICALS (UK) LIMITED, priority 2022, published 2025)
